Test results from US8598079B2, “Active compound combinations” (priority 2010, dated 2013).

Key:
Phaedon cochleariae = Phaedon cochleariae larvae test; conditions: sprayed cabbage leaves
Pyrenophora teres = Pyrenophora teres test (in vitro)/microtitre plates; assay type: cell-based; conditions: 120 h, 5 days incubation, single active compound, read-out: % efficacy
Procedure: (§1) The microtest is carried out in microtitre plates using Potato Dextrose Broth (PDB) as liquid test medium. The active compounds are used as technical-grade a.i., dissolved in methanol. For inoculation, a spore suspension of Pyrenophora teres is used. After 5 days of incubation in the dark and with shaking (10 Hz), the transparency in each filled cavity of the microtitre plates is determined with the aid of a spectrophotometer.

Rhizoctonia solani = Rhizoctonia solani test (in vitro)/microtitre plates; assay type: cell-based; conditions: 168 h, 7 days incubation, single active compound, read-out: % efficacy
Procedure: as §1, with “acetone.” for “methanol.”, “mycelium” for “spore”, “Rhizoctonia solani” for “Pyrenophora teres”, “7” for “5”

| SMILES | Kill in % after 3 d (Phaedon cochleariae; 4 ppm) | Emax at 1 ppm (Pyrenophora teres) | Kill in % after 3 d (Phaedon cochleariae; 200 ppm) | Kill in % after 1 d (Phaedon cochleariae; 500 ppm) | Emax at 0.3 ppm (Rhizoctonia solani) | Kill in % after 1 d (Phaedon cochleariae; 100 ppm) |
| --- | --- | --- | --- | --- | --- | --- |
| CNC(=O)c1cc(Cl)cc(C)c1NC(=O)c1cc(Br)nn1-c1ncccc1Cl [Rynaxypyr, 3-bromo-N-[4-chloro-2-methyl-6-(methylcarbamoyl)phenyl]-1-(3-chloropyridin-2-yl)-1H-pyrazole-5-carboxamide] | 80% | 11% |  |  |  |  |
| Cc1nn(C)c(F)c1C(=O)Nc1ccccc1C(C)CC(C)C (centres unmarked) [penflufen, N-[2-(1,3-dimethylbutyl)phenyl]-5-fluoro-1,3-dimethyl-1H-pyrazole-4-carboxamide] |  | 26% | 0% | 0% | 20% |  |
| CC(c1ccc(C(F)(F)F)nc1)S(C)(=O)=NC#N (centres unmarked) [sulfoxaflor] |  |  |  |  | 0% | 25% |
